{
  "source": "patent US11287416B2",
  "about": "“Cancer” (NEURO-BIO LTD, priority 2016, dated 2022)",
  "assay_type_in_all_cases": "cell-based",
  "key": {"[1]": {"test_system": "alpha7 nicotinic receptors, PC12 cells", "assay": "Calcium fluorometry (Fluo-8), PNU282987-induced calcium influx in PC12 cells", "details": "PNU282987 1 μM; for protection against T30-induced calcium influx: T30 combined with blocker", "method": "PC12 cells were plated in 200 μl of Dulbecco's Modified Eagle's medium (DMEM) plus 2 mM of L-glutamine medium the day before the experiment in 96 well plates. On the day of the experiment, the Fluo-8 solution (Abcam) was prepared as described by the provider by adding 20 μl of Fluo-8 in the assay buffer that contains 9 ml of Hank's Balanced Salt Solution (HBSS) and 1 ml of pluronic F127 Plus. Subsequently, 100 μl of growth medium was removed and 100 μl of Fluo-8 solution were added. Treatments with T30 in conjunction with NBP14 or Tri peptides were added and incubated for 30 minutes in the incubator and 30 minutes room temperature. After 1 h, the plate was placed in the fluorescence plate reader (Fluostar, Optima, BMG Labtech, Ortenberg, Germany). Before reading the fluorescence, PNU282987 1 μM, an alpha7 specific agonist of the nicotinic receptors, was prepared and placed in the Fluostar injector. For each well, the reading was formed by a basal fluorescence reading followed by PNU282987 injection that induced an increase of calcium via nicotinic receptors.\n(§1) In each of the different cell techniques, the statistics analysis was performed with the average of the percentage values of 3 or more experiments. Comparisons between multiple treatment groups and the same control were performed by one-way analysis of variance (ANOVA) and Tukey's post-hoc tests using GraphPAD Instat (GraphPAD software, San Diego, Calif.). Statistical significance was taken at a p value<0.05."}, "rat basal forebrain": {"test_system": "rat basal forebrain", "assay": "voltage-sensitive dye imaging (VSDI) on brain slices", "details": "for magnitude (summed fluorescence) of evoked responses, compound alone: 4 μM in perfusate, no T30, rat basal forebrain slices", "method": "Male Wistar rats (14 days old) were anaesthetised using isoflurane ([…], 100% w/w). Isoflurane was applied to the cotton bed at the bottom of an anaesthetic chamber (glass box 20×15×15 cm) where rats were then placed for approximately 45 s until complete anaesthesia was reached. The hind paw of each anaesthetised rat was pinched to check for the appropriate depth of anaesthesia. Upon confirmation of anaesthesia, rats were quickly decapitated, with the brain being quickly removed and immersed in ice cold oxygenated ‘slicing’ artificial cerebrospinal fluid (aCSF in mmol: 120 NaCl, 5 KCL, 20 NaHCO3, 2.4 CaCl2 2 MgSO4, 1.2 KH2PO4, 10 glucose, 6.7 HEPES salt and 3.3 HEPES acid; pH=7.1). Coronal slices (400 μm thick) were then taken from a block of brain containing the basal forebrain, namely the MS-dBB complex (between +9.20 and +9.48 mm Interaural and +0.48 and +0.2 mm Bregma, FIG. 4A) and the somatosensory barrel field cortex (SiBF, between +8.08 and +7.20 mm Interaural and −0.92 mm and −1.80 mm Bregma) (Paxinos and Watson, 1998) using a Vibratome (Leica VT1000S). Slices were then transferred to a bubbler pot containing oxygenated aCSF at room temperature (recording aCSF in mmol: 124 NaCl, 5 KCL, 20 NaHCO3, 2.4 CaCl2 2 MgSO4, 1.3 KH2PO4, 10 glucose; pH=7.4) which was identical to that used in VSDI (voltage sensitive dye imaging) recording. Slices were then left for approximately 1-1.5 hours before preparing them for VSD staining.\nSlices were placed in a dark, high humidity chamber filled with aCSF bubbled with 95% O2, 5% CO2. Once there, the dye solution (4% 0.2 mM styryl dye pyridinium 4-[2-[6-(dibutylamino)-2-napthalenyl]-ethenyl]-1-(3-sulfopropyl)hydroxide(Di-4-NEPPS), Invitrogen, Paisley, UK in 48% aCSF, 48% foetal bovine serum, 3.5% DMSO and 0.4% cremophore EL) (Tominaga et al., 2000) was applied to the slices for 20-25 minutes before being transferred back to a bubbler pot containing oxygenated aCSF kept at room temperature for 30 minutes.\nWhen starting the VSDI recordings, slices were placed in the recording bath on a small piece of filter paper to allow the flow of oxygenated aCSF on the underside of the slice and in order to keep it alive. The slice was then weighed down by a home-made plastic grid that was placed on top of the slice. The perfusing bath solution was heated to 30±1° C. by a stage heater. A concentric bipolar stimulating electrode (FHC, Maine, USA) was placed in the ventral diagonal band of the basal forebrain with stimulation being set to 30V. For the acquisition of VSD data, 2 dimensional images, equivalent to 88×60 pixels, were recorded using the MiCamo2 High Resolution camera (Brain Vision, Japan) with BV_Analyze imaging software. Acquisition of images was coupled to Spike2 V4.23 software (CED Ltd, Cambridge, UK) in order to align the image capture with the stimulation protocol (every 28 s with 30 repeats) via the Micro 1401 MkII. (CED Ltd, Cambridge, UK). Light was generated using an Osram halogen xenophot 64634 HLX EFR Display/Optic lamp and was filtered to emit green (530±10 nm) light using a MHF-G150LR (Moritex Corporation) coupled to the MiCamo2 High resolution imaging system and filtered the emitted fluorescence through a >590 nm high pass filter.\nAll drug and peptide stocks were prepared in frozen aliquots prior to experiments. For the production of perfusion solutions, stock solutions were thawed and added to recording aCSF as appropriate and bath applied at a constant rate of 1.5 ml/min perfusion using the Minipulse 3 peristaltic pump (Gilson Scientific Ltd., Bedfordshire, UK)."}, "[2]": {"test_system": "AChE activity, PC12 cells", "details": "for protection against T30-induced AChE activity: T30 1 μM combined with blocker", "method": "AChE activity was measured using the Ellman reagent that measures the presence of thiol groups as a result of AChE activity. In the case of the G4 experiment, AChE (G4) activity was tested alone and also together with either NBP14 or Tri peptides. PC12 cells were plated the day before the experiment as for the cell viability assay. Cells were treated with T30 (1 μM) alone or combined with NBP14 or Tri peptide (0.5 μM). After treatment, supernatant (perfusate) of each treatment was collected and 25 μL from is each condition were added to a new flat bottomed 96 well plate followed by the addition of 175 μl of Ellman reagent (Solution A: KH2PO4 139 mM and K2HPO4 79.66 mM, pH 7.0; solution B (substrate): Acetylthiocholine Iodide 11.5 mM; Solution C (Reagent): 5,5′-dithiobis (2-nitrobenzoic acid) 8 mM and NaHCO15 mM). The Ellman reagent was prepared as a mixture of the 3 solutions in a ratio 33(A):3(B):4(C). Absorbance measurements were taken for an interval of 60 minutes across experiments at 405 nm in a Vmax plate reader (Molecular devices, Wokingham, UK).\nas §1"}, "astroglia": {"test_system": "astroglia", "assay": "cell proliferation assay (trophic-toxic effects)", "details": "for toxic effect in cell proliferation assay: high concentration, 10 μM"}, "[3]": {"details": "co-perfusion 4 μM blocker with 2 uM T30"}},
  "note": "“Also recorded” adds a separate entry of the source. Square brackets hold non-standard residues; d marks the D form. Peptide text beside a SMILES is read from it. Bpa = N[C@@H](Cc1ccc(C(=O)c2ccccc2)cc1)C(=O)O; Phe(4-NH2) = Nc1ccc(C[C@H](N)C(=O)O)cc1; hArg = N=C(N)NCCCC[C@H](N)C(=O)O",
  "data": [
    {"compound": "CC(=O)N[C@@H](Cc1ccc(C(=O)c2ccccc2)cc1)C(=O)N[C@@H](CCCCNC(=N)N)C(=O)N[C@@H](Cc1ccc(N)cc1)C(N)=O", "note": "[Tri04] (Ac-[Bpa]-[hArg]-[Phe(4-NH2)]-NH2)", "values": [
      {"measurement": "protection against T30-induced calcium influx", "setting": "[1]", "value": "protects the toxic effects of T30 by reducing calcium influx"},
      {"measurement": "blocking of T30-induced effects on basal forebrain activity", "setting": "rat basal forebrain; co-perfusion 2 μM blocker with 2 μM T30, n=29", "value": "significant effect on basal forebrain population activity; also recorded: reversal of the inhibitory effect of T30; also recorded: increase in network activity; also recorded: protective role"},
      {"measurement": "blocking of T30-induced effects on basal forebrain activity", "setting": "rat basal forebrain; [3]", "value": "totally block the T30-induced effects; also recorded: recapitulates results previously seen with the application of 4 μM NBP14; also recorded: significant effect reversing T30 activity"}
    ]},
    {"compound": "CC(=O)N[C@@H](Cc1ccc2ccccc2c1)C(=O)N[C@@H](Cc1ccc(N)cc1)C(=O)N[C@@H](Cc1c[nH]c2ccccc12)C(N)=O", "note": "[Tri02] (HELM PEPTIDE1{[ac].[O=C([C@H](Cc1ccc2ccccc2c1)N[*:1])[*:2]].[Nc1ccc(C[C@H](N[*:1])C(=O)[*:2])cc1].W.[am]}$$$$V2.0)", "values": [
      {"measurement": "protection against T30-induced AChE activity", "setting": "[2]", "value": "protects against the toxic effects of T30"},
      {"measurement": "protection against T30-induced calcium influx", "setting": "[1]", "value": "protects against the toxic effects of T30"},
      {"measurement": "magnitude (summed fluorescence) of evoked responses, compound alone", "setting": "rat basal forebrain", "value": "small alterations"},
      {"measurement": "magnitude (summed fluorescence) of evoked responses, compound alone", "setting": "rat basal forebrain; listed as Triol", "value": "recapitulates results seen with application of 4 μM NBP14"},
      {"measurement": "blocking of T30-induced effects on basal forebrain activity", "setting": "rat basal forebrain; [3]", "value": "not found to protect against T30-induced deviations from baseline; also recorded: some efficacy in blocking those T30-induced deviation"}
    ]},
    {"compound": "AEFHRWSSYMVHWK (listed as Homo sapiens) [Compound T14, toxic 14 amino acid peptide from the C-terminus of acetylcholinesterase]", "values": [
      {"measurement": "cell proliferation, trophic effect on astroglia", "setting": "astroglia; 1 pM peptide", "value": "96±5", "unit": "%"},
      {"measurement": "cell proliferation, trophic effect on astroglia", "setting": "astroglia; 10 pM peptide", "value": "121±8", "unit": "%"},
      {"measurement": "toxic effect in cell proliferation assay", "setting": "astroglia", "value": "equal toxic effects"}
    ]},
    {"compound": "c[AEFHRWSSYMVHWK] (head-to-tail cyclised; listed as Homo sapiens) [NBP14]", "values": [
      {"measurement": "protection against T30-induced AChE activity", "setting": "[2]", "value": "protects against these toxic effects"},
      {"measurement": "protection against T30-induced calcium influx", "setting": "[1]", "value": "protects against these toxic effects"},
      {"measurement": "magnitude (summed fluorescence) of evoked responses, compound alone", "setting": "rat basal forebrain", "value": "small, non-significant alterations"},
      {"measurement": "blocking of T30-induced effects on basal forebrain activity", "setting": "rat basal forebrain; [3]", "value": "totally block the T30-induced effects"}
    ]},
    {"compound": "KAEFHRWSSYMVHWKNQFDHYSKQDRCSDL (listed as Homo sapiens) [Compound T30, Acetylcholinesterase (AChE) C-terminus 30 amino acid peptide]", "values": [
      {"measurement": "cell proliferation, trophic effect on astroglia", "setting": "astroglia; 1 pM peptide", "value": "120±4", "unit": "%"},
      {"measurement": "cell proliferation, trophic effect on astroglia", "setting": "astroglia; 10 pM peptide", "value": "135±9", "unit": "%"},
      {"measurement": "toxic effect in cell proliferation assay", "setting": "astroglia", "value": "equal toxic effects"},
      {"measurement": "AChE activity", "setting": "[2]; peptide alone, 1 μM", "value": "increases"},
      {"measurement": "calcium influx", "setting": "[1]; peptide alone, 1 μM", "value": "increases"},
      {"measurement": "effect of T30 alone on evoked VSDI signal", "setting": "rat basal forebrain; T30 2 uM, basal forebrain of p14 rats", "value": "greatest deviation; also recorded: net inhibition"}
    ]}
  ]
}
